# According to patent US20120093822A1, “DOPAMINE D2 RECEPTOR-DISC1 INTERACTION, COMPOSITIONS AND METHODS FOR MODULATING SAME” (Centre Forr Addiction And Mental Health, priority 2009, published 2012):
# Entries after “also recorded” stand apart in the source; their conditions may differ. Read-outs that look alike come from different tables or passages of the source. Where no end group is shown, it is not given here.
# B1: Dopamine D1 receptor (D1R), endogenous, in rat striatal tissue (receptor, UniProt P18901 1-446, looked up)
# chain: MAPNTSTMDEAGLPAERDFSFRILTACFLSLLILSTLLGNTLVCAAVIRFRHLRSKVTNFFVISLAVSDLLVAVLVMPWKAVAEIAGFWPLGPFCNIWVAFDIMCSTASILNLCVISVDRYWAISSPFQYERKMTPKAAFILISVAWTLSVLISFIPVQLSWHKAKPTWPLDGNFTSLEDTEDDNCDTRLSRTYAISSSLISFYIPVAIMIVTYTSIYRIAQKQIRRISALERAAVHAKNCQTTAGNGNPVECAQSESSFKMSFKRETKVLKTLSVIMGVFVCCWLPFFISNCMVPFCGSEETQPFCIDSITFDVFVWFGWANSSLNPIIYAFNADFQKAFSTLLGCYRLCPTTNNAIETVSINNNGAVVFSSHHEPRGSISKDCNLVYLIPHAVGSSEDLKKEEAGGIAKPLEKLSPALSVILDYDTDVSLEKIQPVTHSGQHST
# Tests used:
# [1] = 100 Russian patients with schizophrenia; cited from earlier work
# [2] = system: D2-DISC1 interaction; test: Apomorphine-induced disruption of pre-pulse inhibition (PPI) of the acoustic startle reflex in rats; assay type: in vivo, rat; settings: for Effect on apomorphine-induced disruption of PPI / Effect on basal PPI (degree of PPI without apomorphine): rats; for Effect on apomorphine-induced disruption of PPI: apomorphine 0.3 mg/kg SC, peptide ICV (1 mM, 4 μl; 40 nmol), n=5 per group; for Effect on basal PPI (degree of PPI without apomorphine): peptide ICV
# From the text: PPI of the acoustic startle reflex is a sensorimotor gating process known to be deficient in a number of neurologic and psychiatric conditions including, but not limited to schizophrenia, Huntington's disease, Tourette's syndrome, and obsessive compulsive disorder (OCD).
# [3] = system: GSK-3α/β phosphorylation; test: Western blot of phosphorylated GSK-3α/β (Ser-21/9) in transfected HEK-293T cells; assay type: cell-based
# Description: (A) Western blot analysis of phosphorylated GSK-3α/β levels in extract prepared from transfected HEK293T cells in the presence or absence of DA. Alpha-tubulin was used as loading controls. (B) Densitometric analysis. Data are analyzed by t-test. (C) Cyclic AMP analysis in transfected HEK293T cells in the presence or absence of Foskolin and Quinpirole. Data are analyzed by one-way ANOVA. Data are means±SEM. Numbers of samples per group (n) are indicated. CTRL: Control; DA: Dopamine.
# Alpha-tubulin was used as loading controls. CTRL: Control; DA: Dopamine.
# Currently, all studies related to D2R-mediated Akt/GSK-3 signaling were carried out in brain tissue, where the expression of D2R and DISC1 was confirmed (11,89,99). At least to our knowledge, there are no studies of D2R-mediated Akt/GSK-3 signaling in HEK-293T cells. Furthermore, there is no evidence indicating the existence of endogenous DISC1 in HEK-293T cells. […] The intensity of phosphor-GSK-3α Ser-21 and […] binding was quantified by densitometry (software: AIS Imaging Research Inc) (FIG. 1B). […] acted as a loading control in this experiment. […]
# [4] = biological target: D2R (Homo sapiens, UniProt P14416); settings: cited from earlier work
# [5] = biological target: T1, DISC1 (Rattus norvegicus, UniProt Q810H6); test: Affinity purification (pull-down) of DISC1 from solubilized striatal tissue by GST fusion proteins of D2R fragments; assay type: binding; settings: GST fusion protein
# T1 construct: from tissue; host or cells: rat striatum, solubilized
# T1 sequence (Q810H6 1-846): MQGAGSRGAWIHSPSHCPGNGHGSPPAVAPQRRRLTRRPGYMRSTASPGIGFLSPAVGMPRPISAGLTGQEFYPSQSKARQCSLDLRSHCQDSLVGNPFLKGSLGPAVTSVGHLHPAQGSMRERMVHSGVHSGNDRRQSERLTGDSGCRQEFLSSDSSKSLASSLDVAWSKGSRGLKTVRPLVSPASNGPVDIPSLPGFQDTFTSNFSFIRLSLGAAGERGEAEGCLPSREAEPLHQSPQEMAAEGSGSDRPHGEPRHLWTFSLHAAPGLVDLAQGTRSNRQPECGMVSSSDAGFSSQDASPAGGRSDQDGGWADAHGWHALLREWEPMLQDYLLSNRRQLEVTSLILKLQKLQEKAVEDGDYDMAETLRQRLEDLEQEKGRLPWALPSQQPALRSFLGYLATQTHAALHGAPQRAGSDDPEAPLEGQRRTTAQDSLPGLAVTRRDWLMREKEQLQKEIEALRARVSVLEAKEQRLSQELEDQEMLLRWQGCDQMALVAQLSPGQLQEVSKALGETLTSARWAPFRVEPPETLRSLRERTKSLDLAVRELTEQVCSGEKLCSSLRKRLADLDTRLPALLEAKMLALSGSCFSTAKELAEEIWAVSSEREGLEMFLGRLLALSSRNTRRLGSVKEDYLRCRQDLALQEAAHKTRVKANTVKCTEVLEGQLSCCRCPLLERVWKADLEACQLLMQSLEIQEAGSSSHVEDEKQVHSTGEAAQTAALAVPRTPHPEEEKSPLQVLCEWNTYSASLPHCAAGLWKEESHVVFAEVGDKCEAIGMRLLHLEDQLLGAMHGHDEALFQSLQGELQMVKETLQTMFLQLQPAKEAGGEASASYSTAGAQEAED
# From the text: (A) Co-immunoprecipitation of DISC1 by D2 antibody in rat striatal tissue.
# This method uses GST fusion proteins encoding the fragments of a test protein to affinity purify other proteins that may form complexes with the test protein in tissue from a specific brain region. Since DISC1 is an intracellular protein, we made GST-fusion proteins encoding two intracellular regions of D2R: the carboxyl tail (CT) of D2R (D2CT: T428-C443) and the third intracellular loop ([…]) of D2R (D2IL3: K211-Q373). Many dopamine receptor interacting proteins have been identified that interact with either the CT or the IL3 region of dopamine receptors (94). […] GST fusion proteins encoding these two fragments were made and used in the affinity purification experiment. […] Thus, we concluded that D2IL3-1-1 (SEQ ID NO:1) comprises the site for D2-DISC1 interaction.
# [6] = system: DISC1NT; test: In vitro binding assay with [35S]-DISC1NT probe; settings: glutathione beads with GST-fusion protein, autoradiography
# Description: (§1) To construct GST-fusion proteins encoding truncated D2113, cDNA fragments were amplified by PCR with specific primers. All 5′ and 3′ oligonucleotides incorporated BamH1 site (GGATCC) and Xho1 sites (CTCGAG), respectively, to facilitate subcloning into vector pGEX-4T3 (for GST-fusion protein construction). GST-fusion proteins were prepared from bacterial lysates as described by the manufacturer (Amersham). To confirm appropriate splice fusion and the absence of spurious PCR generated nucleotide errors, all constructs were resequenced. For in vitro binding assays, the probes were made with DISC1-NT or DISC1-CT subcloned into mammalian expression vector pCDNA3 using TNT® T7 Quick Coupled Transcription/Translation System (Promega, Madison, Wis.) and [35S] methionine (PerkinElmer, Waltham, Mass.). Glutathione beads carrying 20 μg GST-fusion proteins of D2IL3 or GST alone were incubated at room temperature for 1 hour with [35S] methionine-labeled […] probe, respectively. The beads were then washed six times with PBS containing 0.1-0.5% (V/V) Triton X-100 and eluted with 10 mM glutathione elution buffer. Eluates were separated by SDS-PAGE and visualized by autoradiography using BioMax (Kodak) film.
# [7] = system: DISC1CT; test: In vitro binding assay with [35S]-DISC1CT probe; settings: glutathione beads with GST-fusion protein, autoradiography
# Description: as §1
# [8] = system: D2-DISC1 interaction; test: Co-immunoprecipitation of D2-DISC1 after ICV administration of peptide; assay type: in vivo, rat; settings: administered via ICV; data not shown
# From the text: PPI of the acoustic startle reflex is a sensorimotor gating process known to be deficient in a number of neurologic and psychiatric conditions including, but not limited to schizophrenia, Huntington's disease, Tourette's syndrome, and obsessive compulsive disorder (OCD). PPI can be disrupted by the dopamine DI/D2R agonist apomorphine in rats (111). […] Accordingly, if D2-DISC1 interaction plays an important role in the D2R-mediated reduction of phosphorylation of GSK-3α/β, disruption of the D2R-DISC1 interaction should reverse D2R-associated behaviours such as PPI deficit. […] These effects could not be explained in terms of altered startle reactivity (data not shown). The ability of the TAT-D2pep (administered via ICV) to disrupt the D2-DISC1 interaction was confirmed in co-immunoprecipitation experiments (data not shown).
# [9] = biological target: T2, Disrupted-in-schizophrenia-1 (DISC1), endogenous, in solubilized rat striatal tissue (rat, UniProt Q810H6 1-846, limits assumed); test: co-immunoprecipitation from rat striatal tissue with D1R antibody (data not shown)
# T2 construct: Endogenous protein in a tissue extract
# T2 sequence (looked up): T1 sequence (Q810H6 1-846)
# Sequence of D2-DISC1 interaction (P61169 whole entry, one chain of several): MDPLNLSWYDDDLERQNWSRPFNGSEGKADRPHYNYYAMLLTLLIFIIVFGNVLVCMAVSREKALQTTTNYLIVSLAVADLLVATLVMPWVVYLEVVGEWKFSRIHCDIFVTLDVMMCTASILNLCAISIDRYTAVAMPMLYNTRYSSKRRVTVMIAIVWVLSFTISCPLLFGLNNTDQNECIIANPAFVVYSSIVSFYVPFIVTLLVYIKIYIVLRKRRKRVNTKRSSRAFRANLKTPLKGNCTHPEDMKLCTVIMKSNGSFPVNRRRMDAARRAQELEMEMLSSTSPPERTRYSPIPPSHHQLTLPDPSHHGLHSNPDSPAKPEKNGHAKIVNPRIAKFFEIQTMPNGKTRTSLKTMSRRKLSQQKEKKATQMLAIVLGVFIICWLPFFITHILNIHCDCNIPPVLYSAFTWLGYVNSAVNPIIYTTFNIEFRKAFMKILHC
# Sequence of D2R (P14416 whole entry, the tested form may be a part): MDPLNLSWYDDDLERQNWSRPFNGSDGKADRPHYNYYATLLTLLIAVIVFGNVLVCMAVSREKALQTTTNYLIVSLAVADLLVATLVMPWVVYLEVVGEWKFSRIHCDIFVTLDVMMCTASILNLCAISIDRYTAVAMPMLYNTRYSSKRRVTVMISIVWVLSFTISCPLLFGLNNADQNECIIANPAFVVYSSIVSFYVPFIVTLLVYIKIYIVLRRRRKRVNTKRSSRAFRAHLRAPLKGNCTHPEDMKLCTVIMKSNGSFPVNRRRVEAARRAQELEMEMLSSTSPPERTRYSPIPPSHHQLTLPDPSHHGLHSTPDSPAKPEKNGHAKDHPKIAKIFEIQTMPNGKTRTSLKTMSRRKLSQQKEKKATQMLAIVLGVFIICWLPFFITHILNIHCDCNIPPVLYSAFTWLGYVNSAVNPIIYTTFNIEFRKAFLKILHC
# Sequence of DISC1NT (Q9NRI5 1-75 limits assumed): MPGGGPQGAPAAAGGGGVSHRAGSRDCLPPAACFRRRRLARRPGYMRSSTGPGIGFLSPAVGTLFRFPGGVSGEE
molecule,measurement,setting,value
"N[C@@]1(C(=O)O)CS(=O)(=O)[C@H]2[C@H](C(=O)O)[C@H]21 [LY404,039]",Clinical effectiveness in schizophrenia,[1],significantly effective
CN1CCc2cccc3c2[C@H]1Cc1ccc(O)c(O)c1-3 [apomorphine],Effect on PPI in comparison with saline/vehicle,"[2]; rat, in vivo",reduced levels of PPI at all 3 prepulse intensities; also recorded: significantly disrupted PPI
NCCc1ccc(O)c(O)c1 [dopamine],Phosphorylation of GSK3α/β,"[3]; HEK-293T cells co-expressing D2R and DISC1, 10 μM dopamine, 30 min",significantly decreased
same,Phosphorylation of GSK3α/β,"[3]; HEK-293T cells expressing D2R with pcDNA3, dopamine",failed to alter
OCCOCCN1CCN(C2=Nc3ccccc3Sc3ccccc32)CC1 [quetiapine],Antagonism of β-arrestin 2 recruitment to D2R,[4]; induced by activation of D2R,potently antagonize
Cc1nc2n(c(=O)c1CCN1CCC(c3noc4cc(F)ccc34)CC1)CCCC2 [risperidone],Antagonism of β-arrestin 2 recruitment to D2R,[4],potently antagonize
O=C1Cc2cc(CCN3CCN(c4nsc5ccccc45)CC3)c(Cl)cc2N1 [ziprasidone],Antagonism of β-arrestin 2 recruitment to D2R,[4]; induced by activation of D2R,potently antagonize
"GST-D2CT: GST-fusion protein of the carboxyl tail of D2R (D2CT: T428-C443) (TFNIEFRKAFLKILHC; also: GST fusion; UniProt P14416 428-443, looked up, fragment)",Pull-down (precipitation) of DISC1,[5],not
"GST-D2IL3-1-1: GST fusion of D2IL3-1-1: K211-T225, KIYIVLRRRRKRVNT (SEQ ID NO:1) (also: GST fusion; UniProt P14416 211-225, looked up, fragment)",Pull-down (precipitation) of DISC1,[5],Affinity pull-down of the DISC1; also recorded: recognizes and precipitates DISC1
same,Binding of [35S]-DISC1NT probe,[6],bound
same,Binding of [35S]-DISC1CT probe,[7],not
"GST-D2IL3-1-2: GST fusion of D2IL3-1-2: K226-L240 (KRSSRAFRAHLRAPL; also: GST fusion; UniProt P14416 226-240, looked up, fragment)",Pull-down (precipitation) of DISC1,[5],failed to
"GST-D2IL3-1: GST fusion protein of D2IL3-1: K211-V270 (KIYIVLRRRRKRVNTKRSSRAFRAHLRAPLKGNCTHPEDMKLCTVIMKSNGSFPVNRRRV; cysteine pairing not given here; also: GST fusion; UniProt P14416 211-270, looked up, fragment)",Pull-down (precipitation) of DISC1,[5],Affinity pull-down of the DISC1; also recorded: recognizes and precipitates DISC1
TAT-D2pep-sc: scrambled peptide YGRKKRRQRRRVLRKTRIRRYKIRNV (SEQ ID NO:3) (TAT-D2 scrambled fusion protein),Effect on apomorphine-induced disruption of PPI,[2],did not affect the response to apomorphine
same,Effect on apomorphine-induced disruption of PPI,[2]; listed as TAT-D2pep-scramb,no effect
same,Effect on basal PPI (degree of PPI without apomorphine),[2],did not affect
TAT-D2pep: TAT-D2 pep [K211-T225]: YGRKKRRQRRRKIYIVLRRRRKRVNT (SEQ ID NO:2) (TAT-[K211-T225]D2R fusion protein),Effect on apomorphine-induced disruption of PPI,[2],completely reversed the effects of apomorphine; also recorded: significantly reversed the disruption of PPI
same,Effect on basal PPI (degree of PPI without apomorphine),[2],without altering the degree of PPI
same,Ability to disrupt the D2-DISC1 interaction (co-immunoprecipitation),[8],confirmed
B1,binding result,[9],no binding
